The text below walks through data of patent US11638737B2, “Food compositions and pharmaceutical compositions containing Filipendula glaberrima extract for lowering blood cholesterol levels and for ameliorating atherosclerosis” (KOREA INSTITUTE OF SCIENCE AND TECHNOLOGY, priority 2019, dated 2023).

For assay [1], the system named is lipid peroxide formation in liver homogenate. As to the kind of experiment: Lipid peroxide production inhibitory effect (LPO) in rat liver homogenate. It counts as biochemical, Sprague-Dawley rats. As to conditions: for IC50: samples marked (μM). The procedure: The lipid peroxide production inhibitory effect (LPO) of the extract and the isolated compounds were tested. Lipid peroxide is a substance produced by peroxidation of lipids through various oxidation reactions. Reactive oxygen species, free radicals and the like oxidize phospholipids of cell membranes containing great amounts of unsaturated fatty acids, producing lipid peroxides in the cell membranes. When the lipid peroxides are accumulated in the cell membranes, the fluidity and functionality of the cell membrane are deteriorated, resulting in local disorders in tissues such as inhibition of cell functions and changes in cell structures.
Therefore, the effects of inhibiting lipid peroxide production by the Filipendula glaberrima leaf and stem extracts and the isolated compounds were measured as follows. The animals used in the experiment were male Sprague-Dawley rats, and only water was supplied for 24 hours before the experiment. […] The experimental animals were subjected to respiratory anesthesia with isoflurane, and dissected and a 0.15 M ice-cold KCl solution was perfused through the liver portal vein to remove blood from the liver and extract the liver. […] 50 mM Tris-HCl buffer (pH 7.5) was added to 300 μl of a liver homogenate (11 mg protein/ml), 10 μM FeSO4, 10 μl of a test drug and 0.4 mM ascorbic acid to adjust the total volume to 1 ml, and then the resulting mixture was incubated at 37° C. for 30 minutes.

Another assay addresses T1, HMG-CoA reductase (Homo sapiens, UniProt P04035).
T1 construct: purchased Sigma-Aldrich (St. Louis, Mo.)
T1 sequence (P04035 426-888 limits assumed): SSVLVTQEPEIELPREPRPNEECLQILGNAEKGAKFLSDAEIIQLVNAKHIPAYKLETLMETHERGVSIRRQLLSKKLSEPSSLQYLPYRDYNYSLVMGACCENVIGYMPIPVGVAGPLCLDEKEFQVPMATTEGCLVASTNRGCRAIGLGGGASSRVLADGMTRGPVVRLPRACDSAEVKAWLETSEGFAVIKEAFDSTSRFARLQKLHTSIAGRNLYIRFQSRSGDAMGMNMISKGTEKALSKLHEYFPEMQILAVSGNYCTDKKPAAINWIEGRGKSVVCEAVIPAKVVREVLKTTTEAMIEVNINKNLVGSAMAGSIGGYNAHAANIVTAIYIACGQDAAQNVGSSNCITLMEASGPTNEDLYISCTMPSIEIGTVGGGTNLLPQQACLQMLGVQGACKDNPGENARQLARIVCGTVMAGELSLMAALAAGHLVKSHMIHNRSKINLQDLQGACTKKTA
As to the kind of experiment: HMG-CoA reductase inhibitory effect (modified Perchellet's assay, absorbance at 340 nm). To be noted: mean ± standard error; values without (μM) mark. It counts as biochemical. The procedure: Transparent 96-well plates were purchased from SPL Lifesciences (Pocheon). A VERSA Max™ microplate reader from Molecular Devices was used.
The sample for detection was dissolved in DMSO before use.
The activity of HMG-CoA reductase was compared and analyzed by recording the absorbance at 340 nm at 37° C. for 10 minutes using a VERSA Max™ microplate reader. […] The experiment was repeated three times.

A short description of assay [2]: DPPH radical scavenging effect. To be noted: samples marked (μM); read-out: SC50 DPPH radical. The text has this: Data are expressed as an average of measurements conducted in triplicate.
(In general: DPPH is a stable violet radical that fades when it is reduced.)

Assay [3] can be described thus: Xanthine/xanthine oxidase-induced superoxide anion scavenging effect. It counts as biochemical. As to conditions: samples marked (μM); read-out: SC50 Superoxide anion radical (O2−). Here is the method:
Specifically, 0.1 mM xanthine, 0.1 mM EDTA, 50 μg/ml of bovine serum albumin (BSA), […] nitroblue tetrazolium (NBT), a 40 mM Na2CO3 solution, a test sample solution diluted at each concentration and a solution with a final volume of 200 μl containing 1.4×10^−3 unit XOD were mixed and reacted at 25° C. for 20 minutes.

Molecules are shown by their SMILES. In brackets after ≈: the same amount, converted by molar mass.

As to `C[C@@H]1CC[C@]2(C(=O)O[C@@H]3OC(COC(=O)c4cc(O)c(O)c(O)c4)[C@@H](O)[C@H](O)C3O)CC[C@]3(C)C(=CC[C@@H]4[C@@]5(C)C[C@@H](O)[C@H](O)C(C)(C)[C@@H]5CC[C@]43C)[C@@H]2[C@]1(C)O` (some centres unmarked) [Compound 1], the IC50 in assay [1] is 89 ± 3.69 µM; at HMG-CoA reductase it was 175 ± 2.2 µM; in assay [2] it was 47.88 ± 0.01 µM.
Take `COC(=O)c1cc(O)c(O)c(O)c1Oc1cc2c(c(O)c1O)-c1c(cc(O)c(O)c1O)C(=O)O[C@@H]1C(COC2=O)OC(O)C(OC(=O)c2cc(O)c(O)c(O)c2)C1OC(=O)c1cc(O)c(O)c(O)c1` (some centres unmarked) [Compound 2]: the IC50 was 7.99 ± 0.05 µM in assay [1], 1.46 ± 0.22 µM at HMG-CoA reductase, 41.1 ± 2.24 µM in assay [3] and 3.62 ± 0.57 µM in assay [2].
On to `O=c1c(O)c(-c2ccc(O)c(O)c2)oc2cc(O)cc(O)c12` [Quercetin], for which the “IC50 LPO” value in assay [1] (rat liver homogenate, FeSO4/ascorbic acid, TBA, 535 nm) is 29.57 ± 1.32 µg/mL (≈ 97.8 µM). For the same compound, the IC50 in assay [1] is 29.6 ± 1.32 µM; in assay [3] it was > 50 µM; in assay [2], 19 ± 2.25 µM.
In assay [1], `Oc1ccc(C=Cc2cc(O)cc(O)c2)cc1` [Resveratrol] yielded an IC50 of 35.64 ± 0.01 µM.
As to `Cc1c(C)c2c(c(C)c1O)CCC(C)(C(=O)O)O2` (centres unmarked) [Trolox], the IC50 in assay [1] is > 50 µM; in assay [3], > 50 µM; in assay [2], 47.5 ± 0.41 µM.
In the case of `O=C1O[C@H]([C@@H](O)CO)C(O)=C1O` [Vit. C, ascorbic acid], the IC50 was > 50 µM in assay [3] and 29.3 ± 2.49 µM in assay [2].
